Structures can show the parent of a compound that is named as a salt.
Columns and labels:
[1] = molecular target: T1, human OCT2 (Homo sapiens, UniProt O15244); assay: OCT2-mediated cellular import in transduced HEK293 cells (LC-MS/MS); format: cell-based
T1 construct: host or cells: HEK293, baculovirus transduction (CMV promoter), transient
T1 sequence (O15244 1-555): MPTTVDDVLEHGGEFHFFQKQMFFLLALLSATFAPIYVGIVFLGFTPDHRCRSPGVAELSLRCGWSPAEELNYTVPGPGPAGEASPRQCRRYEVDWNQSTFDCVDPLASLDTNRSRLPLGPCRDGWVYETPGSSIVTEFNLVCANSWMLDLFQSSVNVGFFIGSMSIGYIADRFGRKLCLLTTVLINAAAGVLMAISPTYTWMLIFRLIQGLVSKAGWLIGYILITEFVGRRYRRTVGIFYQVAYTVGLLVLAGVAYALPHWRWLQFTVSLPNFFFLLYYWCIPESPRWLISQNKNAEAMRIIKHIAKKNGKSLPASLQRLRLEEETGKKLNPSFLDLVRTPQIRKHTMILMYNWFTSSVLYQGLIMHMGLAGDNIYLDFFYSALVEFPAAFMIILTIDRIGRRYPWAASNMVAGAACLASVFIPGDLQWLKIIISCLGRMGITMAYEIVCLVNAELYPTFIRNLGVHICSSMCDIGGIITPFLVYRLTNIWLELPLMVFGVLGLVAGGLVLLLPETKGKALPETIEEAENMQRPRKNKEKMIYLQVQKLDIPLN
Procedure: HEK293 cells were modified to transiently express (a combination of) human OCT1, OCT2, MATE1, MATE2-K, or eYFP. Briefly, cDNA of the respective genes was cloned downstream of a CMV promoter into a baculovirus, of which passage three was used to transduce HEK293 cells. These cells were seeded in poly-D-lysine coated 24- or 96-wells plates and grown in a 37 °C incubator at 5% CO2. Growth was initiated at ~ 25% confluency using 375 or 125 μL cell and complete medium (DMEM + GlutaMAX™-I supplemented with 10% fetal bovine serum) suspension per well, respectively. After 24 h, cells were transduced with 30 µL virus (10 µL virus + 20 µL complete medium in case of 96-wells plates) or 2 × 15 µL virus for cells that required simultaneous expression of two transporters. Finally, 195 µL sodium butyrate (45 µL for 96-wells plates) was added to a final concentration of 2 mM to enhance protein expression.
HEK293 cells were seeded in 24-wells poly-D-lysine coated plates and transduced the subsequent day with OCT1 or OCT2 as described above. Three days following transduction, OCT1- or OCT2-mediated uptake of ten anti-malarials (AMO, ART, ATO, CQ, DHA, LUM, MQ, PQ, PG, and QN) was performed. […] Following a second wash with 400 µL ice-cold HBSS-HEPES buffer, cells were lysed with 200 µL 50% (v/v) MeOH and 0.1% (v/v) formic acid (HCOOH) in water and samples were sent for quantification by mass spectrometry analysis (see “LC–MS/MS quantification of anti-malarials” section). […]
The affinity (KM) and maximum transport rate (Vmax) for OCT1 and OCT2 of PG were determined by analysing concentration-dependent uptake data from three independent experiments.
Import and export of PG and cycloguanil (CG) was assessed by single and double transduced HEK293 cells. […] Following the same procedure as for the cellular import assay described above, the import of 100 µM PG and CG was measured after 5 min incubation and data was plotted as mean pmol/mg/min ± SEM. […] Significant reduction in uptake (i.e. export by MATEs) was determined using ln transformation and a one-way repeated measures ANOVA with Dunnet’s post test. […]

[2] = cited from earlier work
[3] = co-administration of EFV; cited from earlier work
[4] = Maximum plasma concentration from in vivo pharmacokinetic studies after therapeutic dosing; details: human, the literature Cmax (ng/mL) of Table 2 expressed in µM
Excerpt: As Cmax the (geometric) mean or median maximum plasma concentrations obtained from previous in vivo pharmacokinetic studies after therapeutic dosing was used.

Structure (SMILES)	Uptake by OCT2 ([1]; 100 µM, 5 min)	Unbound fraction [2]	Increase of Cmax of PG by EFV [3]	Uptake by OCT2, percentage of mock-transduced control ([1]; 10 µM, 15 min, 37 °C)	Cmax [4]
CC1(C)N=C(N)N=C(N)N1c1ccc(Cl)cc1 [Cycloguanil]	118 ± 18 pmol/mg/min				
[H]/N=C(\N/C(=N/[H])Nc1ccc(Cl)cc1)NC(C)C [Proguanil, proguanil hydrochloride]		0.25 [39]	47%	207 ± 17%	1.2 µM
